# Experimental data taken from US20120276122A1, “METHODS FOR DIAGNOSIS AND TREATMENT OF CELLULAR PROLIFERATIVE DISORDERS” (Sanford-Burnham Medical Research Institute, priority 2010, published 2012).
# What was measured:
# [1] = molecular target: T1, PKCε (Homo sapiens, UniProt Q02156); assay: In vitro kinase assay, PKCε phosphorylation of GST-tagged ATF2 50-100 peptide; format: biochemical
# T1 sequence (Q02156 1-737): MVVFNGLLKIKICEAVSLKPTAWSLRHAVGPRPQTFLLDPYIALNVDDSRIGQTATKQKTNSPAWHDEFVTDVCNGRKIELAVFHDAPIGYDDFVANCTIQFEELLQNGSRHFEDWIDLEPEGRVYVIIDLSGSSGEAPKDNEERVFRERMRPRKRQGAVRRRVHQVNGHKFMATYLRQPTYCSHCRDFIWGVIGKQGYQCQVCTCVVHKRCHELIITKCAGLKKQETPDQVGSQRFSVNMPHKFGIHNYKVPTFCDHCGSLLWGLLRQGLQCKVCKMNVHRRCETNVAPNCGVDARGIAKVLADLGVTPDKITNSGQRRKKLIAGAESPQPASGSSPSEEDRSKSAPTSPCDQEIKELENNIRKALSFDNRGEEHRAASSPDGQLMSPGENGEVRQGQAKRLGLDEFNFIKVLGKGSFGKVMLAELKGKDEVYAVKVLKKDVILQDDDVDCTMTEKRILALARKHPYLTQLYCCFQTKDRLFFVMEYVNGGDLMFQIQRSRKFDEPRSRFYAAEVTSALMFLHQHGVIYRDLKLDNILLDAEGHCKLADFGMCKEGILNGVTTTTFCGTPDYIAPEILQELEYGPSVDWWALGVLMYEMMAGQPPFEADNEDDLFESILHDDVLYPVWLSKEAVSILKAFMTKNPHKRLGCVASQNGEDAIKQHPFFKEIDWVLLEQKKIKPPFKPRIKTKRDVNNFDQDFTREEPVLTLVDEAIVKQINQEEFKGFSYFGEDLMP
# Method: To determine whether Thr52, the predicted PKCε site for phosphorylation of ATF2, regulates mitochondrial translocation of ATF2, phosphorylation of ATF2 by PKCε in vitro was assessed, as well as the localization of ATF2^T52A (a non-phosphorylatable alanine phosphomutant) and ATF2^T52E (a glutamic acid phosphomimic). […] This phosphorylation is inhibited upon addition of PKCε catalytic inhibitor, Gö6850 (FIG. 3E). […] Collectively, these findings establish that ATF2 mitochondrial localization is regulated by PKCε through phosphorylation at T52.
# [2] = test system: Jun2 promoter; assay: Jun2 promoter-luciferase assay (ATF2 transcriptional activity); format: cell-based; conditions: for Jun2-luciferase activity: SCC9
# Method: (§1) C) is a photograph depicting coverslip-grown SCC9 cells that were co-treated with 40 ng/ml leptomycin B (LMB) and ETO overnight, and were subsequently fixed and immunofluorescently stained as indicated. D) is a gel depicting SCC9 cells transfected with the Jun2 promoter-luciferase construct and assayed for luciferase activity prior to (Control) or after ETO treatment. E) is a bar graph depicting luciferase activity of mitochondria (M) purified from ETO-treated SCC9 cells subject to proteolysis protection assay with titrated concentrations of trypsin: 0.2 (1), 0.1 (2), 0.05 (3), 0.025 (4), or 0.0125 (5) μg in the absence or presence of 1% Triton X-100 (TX) detergent. Scale bars represent 10 μm.
# FIG. 3A) is an image depicting coverslip-grown SCC9 cells treated with 1 or 5 μM PKCε translocation inhibitor overnight, and immunofluorescently stained with indicated antibodies. B) is a photograph depicting coverslip-grown SCC9 cells treated with 10 nM siRNA targeting PKCε overnight were immunofluorescently stained with indicated antibodies. […] F) is a photograph depicting coverslip-grown SCC9 cells were transfected with HA-tagged wildtype ATF2 (WT), ATF2T52A or ATF2T52E, and subsequently immunofluorescently stained with indicated antibodies. G-H) is a series of bar graphs that show quantitation of (Left) SCC9 cells transfected with Jun2 promoter-luciferase construct and empty vector (EV) or caPKCε, assayed for luciferase activity after ETO treatment. (Right) SCC9 cells stably knocked down for ATF2 with a 3′-UTR-targeted shRNA, reconstituted with Jun2 promoter-luciferase construct and ATF2 (WT), ATF2T52A or ATF2T52E and subsequently assayed for luciferase activity. Scale bars represent 10 μm.
# [3] = test system: SCC9 cells; assay: ATF2 mitochondrial localization, immunofluorescent staining of coverslip-grown cells; format: cell-based; conditions: for cells with ATF2 accumulation at the mitochondria: SCC9, 5 μM etoposide overnight, 3 replicate coverslips
# Method: as §1, with “FIG. 1A) is an image depicting control, 5 μM etoposide-treated (ETO, overnight treatment), UVC-treated (20 J/m^2), ionizing radiation-treated (IR, 5Gy), or 40 ng/ml leptomycin B (LMB) and ETO co-treated SCC9 cells grown on coverslips were immunofluorescently stained for HSP60,ATF2 or DNA. Immunostained control and ETO panels represent 89±4% and 64±11%, respectively, of the cells from 3 independent replicate coverslips per condition (n>100 cells counted per replicate). […] C)” for “C)”
# Following indicated treatments, coverslip-grown cells were fixed in fixation buffer containing 4% formaldehyde and 2% sucrose in phosphate buffered saline (PBS) for 20 minutes at room temperature. After fixation, coverslips were rinsed twice in PBS and permeabilized in permeabilization buffer (0.4% Triton X-100 (TX-100)/0.4% bovine serum albumin (BSA) in PBS) for 20 minutes. Primary antibodies were applied at 1:250 dilution in staining buffer (0.1% TX-100/0.1% BSA in PBS) overnight at 4° C. in a humid chamber. Coverslips were subsequently subject to 5 standing washes in wash buffer (0.2% TX-100/0.2% BSA in PBS, 5 minutes per wash). Secondary antibodies (Alexa Fluor secondary 350, 488 or 568, Invitrogen) were applied at 1:250 dilution in staining buffer for 2-3 hours at room temperature in a humid chamber in the dark. Prior to mounting with Vectorshield containing DAPI (Vector Laboratories, CA), coverslips were washed twice additionally in wash buffer. Immunofluorescent analysis was conducted on an Olympus TH4-100 fluorescent microscope. At least 3 Z-planes per field were captured and analyzed using Slidebook V.4.1, and Z-projection images of average intensity were constructed using ImageJ V.1.43u.
# [4] = test system: ATF2; conditions: cited from earlier work; for ATF2 nuclear exclusion: melanoma cells
# [5] = test system: melanoma; conditions: syngeneic mice, human melanoma xenografts; cited from earlier work
# [6] = test system: melanoma cells; conditions: melanoma cells versus melanocytes; cited from earlier work
# [7] = test system: SCC9 cells; assay: HK1 co-localization with mitochondria (immunostaining and MitoTracker); format: cell-based; conditions: SCC9, 5 μM etoposide overnight
# Text: The arrowheads indicate HA-positive cells. Scale bars represent 10 μm.
# [8] = test system: PKCε pS729; assay: Immunoblot of pS729 PKCε (active PKCε); format: cell-based; conditions: SCC9, 5 μM overnight
# [9] = test system: ATF2 pT52; assay: Immunoblot densitometry of pT52/Total ATF2; format: cell-based; conditions: SCC9, etoposide treatment
# Text: B) Control or ATF2 -knocked down LU1205 cells were subject to immunoblot analysis with indicated antibodies. […] D) is an image showing control or ETO-treated coverslip-grown LU1205, 501Mel or UACC903 cells immunofluorescently stained with indicated antibodies.
# [10] = test system: SCC9 cells; assay: Annexin-V / propidium iodide staining and FACS analysis (cell death); format: cell-based; conditions: SCC9, 5 μM, overnight, representative FACS plot
# Method: Cells were stained with Annexin-V and subject to FACS analysis. n=10,000 cells per replicate; 3 replicates per condition were performed. •: p=0.0001; #: p<0.0001.
# For FACS analyses, n=10,000 cells per replicate over 3 independent replicates.
compound,measurement,setting,value
CN(C)CCCn1cc(C2=C(c3c[nH]c4ccccc34)C(=O)NC2=O)c2ccccc21 [Gö6850],PKCε phosphorylation of WT ATF2 peptide,[1],inhibited
same,Jun2-luciferase activity,[2],reduce Jun2-luciferase activity to similar extents as knockdown of ATF2
CCC(=C/[C@H](C)C/C=C/C(C)=C/[C@@H](C)C(=O)[C@@H](C)[C@H](O)[C@@H](C)C/C(C)=C/C(=O)O)/C=C/[C@@H]1OC(=O)C=C[C@@H]1C [leptomycin B],mitochondrial accumulation of ATF2 following etoposide treatment,"[3]; SCC9, 40 ng/ml leptomycin B with ETO",prevented mitochondrial accumulation of ATF2
same,ATF2 mitochondrial translocation following inhibition of PKCε,"[3]; SCC9, leptomycin B pre-treatment 40 ng/ml 6 hours, then 5 μM PKCε-i",efficiently blocked
"ATF2 50-60 peptide: 10 amino acid long peptide derived from ATF2 (amino acids 50-60), contains T52 (EMTLKFGPARN; UniProt P15336 50-60, looked up, fragment)",ATF2 transcriptional activity,[4],inhibit ATF2 transcriptional activity
same,ATF2 nuclear exclusion,[4],caused nuclear exclusion of ATF2
same,melanoma growth,[5],inhibit melanoma growth in syngeneic mice
same,sensitization to apoptosis,[6],sensitized melanoma cells (but not melanocytes) to apoptosis
COc1cc([C@@H]2c3cc4c(cc3[C@@H](O[C@@H]3O[C@@H]5CO[C@@H](C)O[C@H]5[C@H](O)[C@H]3O)[C@H]3COC(=O)[C@H]23)OCO4)cc(OC)c1O [etoposide],HK1 co-localization with mitochondria,[7],enhanced
same,Jun2-luciferase activity,[2],reduce Jun2-luciferase activity to similar extents as knockdown of ATF2
same,reduction of luciferase activity driven by the Jun2 promoter,"[2]; SCC9, after ETO treatment",~50%
same,PKCε phosphorylation on Ser729,[8],decreased
same,levels of pT52,[9],lower
same,cells with ATF2 accumulation at the mitochondria,[3],~64%
same,cells with ATF2 accumulation at the mitochondria,[3]; listed as ETO,64±11%
same,Annexin V-negative (AV−) percentage,[10],89.5%
same,Annexin V-positive (AV+) percentage,[10],11.5%
"ATF2 50-100 peptide: 50 amino acid long peptide derived from ATF2 (amino acids 50-100), contains T52 (EMTLKFGPARNDSVIVADQTPTPTRFLKNCEEVGLFNELASPFENEFKKAS; UniProt P15336 50-100, looked up, fragment)",ATF2 transcriptional activity,[4],inhibit ATF2 transcriptional activity
same,ATF2 nuclear exclusion,[4],caused nuclear exclusion of ATF2
same,melanoma growth,[5],inhibit melanoma growth in syngeneic mice
same,sensitization to apoptosis,[6],sensitized melanoma cells (but not melanocytes) to apoptosis
